Measured values reported in patent publication US7408026B1, “Synthesis of proteins by native chemical ligation” (The Scripps Research Institute, priority 1998, dated 2008).

System: neutrophil elastase release
Assay: assay for neutrophil elastase release (titration)
Assay type: cell-based
Conditions: compared with conventionally synthesized molecule and native sequence IL-8
Description: Application of the native chemical ligation method to the total synthesis of a protein molecule was illustrated by the preparation of human interleukin 8 (IL-8). (M. Baggiolini, et al., FEBS Lett. (1989): vol. 307, p 97; I. Clark-Lewis, et al., J. Biol. Chem. (1994): vol. 269, p 16075 (1994); I. Clark-Lewis, Biochemistry (1991): vol. 30, p 3128; and K. Rajarathnam, et al., (1994): Biochemistry, (1994): vol. 29, p 1689.) The 72 amino acid polypeptide chain contains four Cys residues, which form two functionally critical disulfide bridges in the native protein molecule. The two unprotected synthetic peptide segments reacted cleanly to give the full length polypeptide chain in reduced form without further chemical manipulation (9). This successful ligation was particularly significant because the 33- and 39-residue IL-8 segments each contained two Cys residues, and together encompassed 18 of the 20 genetically encoded amino acids found in proteins. The purified product was folded and oxidized as previously described, to give IL-8 with a mass precisely 4 daltons less than that of the original ligation product, indicating the formation of two disulfide bonds. The properties of this folded product were identical to those of previously studied authentic IL-8 samples.

## corresponding molecule obtained by conventional synthesis: [Ala33]IL-8 obtained by conventional synthesis, used as comparator
  maximal response in neutrophil elastase release: indistinguishable and identical to native sequence IL-8

## [Ala33]IL-8: 72 amino acid human interleukin 8 analogue made by native chemical ligation of IL-8(1-33)αCOSBn and IL-8(34-72), then folded by air oxidation
  maximal response in neutrophil elastase release: indistinguishable and identical to native sequence IL-8
